Data taken from patent US11076594B2, “Pyrazolone compound or salt thereof, preparation method therefor, herbicide composition and use thereof” (QINGDAO KINGAGROOT CHEMICAL COMPOUNDS CO., LTD., priority 2015, dated 2021).

Key:
Format in all cases: in vivo
rice = assay: post-emergence stage experiment, crop (Table 1); conditions: post-emergence spray at 4-5 leaf stage, 250 g/ha active ingredient with 450 kg/ha water, rated after 3 weeks in greenhouse
In short: (§1)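 Weeds and crops grown in soil-filled pots in a greenhouse were sprayed at the 4-5 leaf stage (2-3 weeks after sowing). Compounds were applied in acetone with tween 80, diluted in water. After 3 weeks' culture, growth control was scored as fresh weight control rate.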

alopecurus japonicas = assay: wheat field resistant weed control, greenhouse spray at 4 leaf stage; parameters: key: Level 10: completely dead; Level 9: above 95% growth control rate; Level 8: above 90% growth control rate; Level 7: above 80% growth control rate; Level 6: above 70% growth control rate; Level 5: above 60% growth control rate; Level 4: above 50% growth control rate; Level 3: above 20% growth control rate; Level 2: 5%-20% growth control rate; Level 1: below 5% growth control rate; conditions: sprayed at 4 leaf stage, 4 weeks after treatment, resistant to ALS and ACCase inhibitor herbicides
Procedure: (§2) The activity level standard of harmful plant destruction (i.e. growth control rate) is as follows:
(§3) The above described growth control rate is fresh weight control rate.
(§4) The seeds of alopecurus japonicas, flixweed, shepherd's purse, corn gromwell, chickweed, beckmannia syzigachne, and annual ryegrass and wheat seeds were put into a plastic pot loaded with soil, and then covered with 0.5-2 cm soil, the seeds were allowed to grow in good greenhouse environment. The test plants were treated at 4 leaf stage 2-3 weeks after sowing. The test compounds of the present invention were dissolved in acetone respectively, then added with methyl oleate emulsion and diluted by certain amount of water to certain concentration. The solution was sprayed to the plant with a sprayer. Then the plants were cultured for 4 weeks in greenhouse.

corn = assay: post-emergence stage experiment, crop (Table 1); conditions: post-emergence spray at 4-5 leaf stage, 250 g/ha active ingredient with 450 kg/ha water, rated after 3 weeks in greenhouse
In short: as §1

wheat [1] = assay: post-emergence stage experiment, crop (Table 1); conditions: post-emergence spray at 4-5 leaf stage, 250 g/ha active ingredient with 450 kg/ha water, rated after 3 weeks in greenhouse
In short: as §1

echinochloa = assay: weed control effect in post-emergence stage (Table 1); parameters: key: Level 10: completely dead; Level 9: above 95% growth control rate; Level 8: above 90% growth control rate; Level 7: above 80% growth control rate; Level 6: above 70% growth control rate; Level 5: above 60% growth control rate; Level 4: above 50% growth control rate; Level 3: above 20% growth control rate; Level 2: 5%-20% growth control rate; Level 1: below 5% growth control rate; conditions: post-emergence spray at 4-5 leaf stage, 250 g/ha active ingredient with 450 kg/ha water, rated after 3 weeks in greenhouse
In short: as §1

foxtail = assay: as above; parameters: key: Level 10: completely dead; Level 9: above 95% growth control rate; Level 8: above 90% growth control rate; Level 7: above 80% growth control rate; Level 6: above 70% growth control rate; Level 5: above 60% growth control rate; Level 4: above 50% growth control rate; Level 3: above 20% growth control rate; Level 2: 5%-20% growth control rate; Level 1: below 5% growth control rate; conditions: post-emergence spray at 4-5 leaf stage, 250 g/ha active ingredient with 450 kg/ha water, rated after 3 weeks in greenhouse
In short: as §1

crab grass = assay: as above; parameters: key: Level 10: completely dead; Level 9: above 95% growth control rate; Level 8: above 90% growth control rate; Level 7: above 80% growth control rate; Level 6: above 70% growth control rate; Level 5: above 60% growth control rate; Level 4: above 50% growth control rate; Level 3: above 20% growth control rate; Level 2: 5%-20% growth control rate; Level 1: below 5% growth control rate; conditions: post-emergence spray at 4-5 leaf stage, 250 g/ha active ingredient with 450 kg/ha water, rated after 3 weeks in greenhouse
In short: as §1

Indian mallow = assay: as above; parameters: key: Level 10: completely dead; Level 9: above 95% growth control rate; Level 8: above 90% growth control rate; Level 7: above 80% growth control rate; Level 6: above 70% growth control rate; Level 5: above 60% growth control rate; Level 4: above 50% growth control rate; Level 3: above 20% growth control rate; Level 2: 5%-20% growth control rate; Level 1: below 5% growth control rate; conditions: post-emergence spray at 4-5 leaf stage, 250 g/ha active ingredient with 450 kg/ha water, rated after 3 weeks in greenhouse
In short: as §1

bidens bipinnata = assay: as above; parameters: key: Level 10: completely dead; Level 9: above 95% growth control rate; Level 8: above 90% growth control rate; Level 7: above 80% growth control rate; Level 6: above 70% growth control rate; Level 5: above 60% growth control rate; Level 4: above 50% growth control rate; Level 3: above 20% growth control rate; Level 2: 5%-20% growth control rate; Level 1: below 5% growth control rate; conditions: post-emergence spray at 4-5 leaf stage, 250 g/ha active ingredient with 450 kg/ha water, rated after 3 weeks in greenhouse
In short: as §1

rorippa indica = assay: as above; parameters: key: Level 10: completely dead; Level 9: above 95% growth control rate; Level 8: above 90% growth control rate; Level 7: above 80% growth control rate; Level 6: above 70% growth control rate; Level 5: above 60% growth control rate; Level 4: above 50% growth control rate; Level 3: above 20% growth control rate; Level 2: 5%-20% growth control rate; Level 1: below 5% growth control rate; conditions: post-emergence spray at 4-5 leaf stage, 250 g/ha active ingredient with 450 kg/ha water, rated after 3 weeks in greenhouse
In short: as §1

wheat [2] = assay: wheat field test, crop selectivity, greenhouse spray at 4 leaf stage; conditions: sprayed at 4 leaf stage, 4 weeks after treatment
Procedure: as §2, §3, §4

SMILES	effect on crop, Rice (level) (rice)	Alopecurus japonicas weed controlling effect (activity level) (alopecurus japonicas; 1 g/mu)	Alopecurus japonicas weed controlling effect (activity level) (alopecurus japonicas; 2 g/mu)	Alopecurus japonicas weed controlling effect (activity level) (alopecurus japonicas; 4 g/mu)	Alopecurus japonicas weed controlling effect (activity level) (alopecurus japonicas; 8 g/mu)	effect on crop, Corn (level) (corn)	effect on crop, Wheat (level) (wheat [1])	weed control effect, Echinochloa (level) (echinochloa)	weed control effect, Green foxtail (level) (foxtail)	weed control effect, Crab grass (level) (crab grass)	weed control effect, Indian mallow (level) (Indian mallow)	weed control effect, Bidens bipinnata (level) (bidens bipinnata)	weed control effect, Rorippa indica (level) (rorippa indica)	Wheat (activity level, crop damage) (wheat [2]; 2 g/mu)	Wheat (activity level, crop damage) (wheat [2]; 4 g/mu)	Wheat (activity level, crop damage) (wheat [2]; 8 g/mu)	Wheat (activity level, crop damage) (wheat [2]; 16 g/mu)	Wheat (activity level, crop damage) (wheat [2]; 32 g/mu)
Cn1cc(C(=O)Oc2c(C(=O)c3ccc(C(F)(F)F)c(N4CCCCC4=O)c3Cl)c(C3CC3)nn2C)cn1 [Compound 049]	7 (Level 7: above 80% growth control rate)	8 (Level 8: above 90% growth control rate)	9 (Level 9: above 95% growth control rate)	10	10	2 (Level 2: 5%-20% growth control rate)	3 (Level 3: above 20% growth control rate)	6 (Level 6: above 70% growth control rate)	9 (Level 9: above 95% growth control rate)	6 (Level 6: above 70% growth control rate)	10	4 (Level 4: above 50% growth control rate)	10	0	1 (Level 1: below 5% growth control rate)	1 (Level 1: below 5% growth control rate)	3 (Level 3: above 20% growth control rate)	3 (Level 3: above 20% growth control rate)
CCOc1c(C(=O)Oc2c(C(=O)c3ccc(C(F)(F)F)c(N4CCCC4=O)c3Cl)c(C)nn2C)cnn1C [Compound 021]	5 (Level 5: above 60% growth control rate)	2 (Level 2: 5%-20% growth control rate)	6 (Level 6: above 70% growth control rate)	10	10	3 (Level 3: above 20% growth control rate)	3 (Level 3: above 20% growth control rate)	6 (Level 6: above 70% growth control rate)	10	7 (Level 7: above 80% growth control rate)	9 (Level 9: above 95% growth control rate)			0	1 (Level 1: below 5% growth control rate)	4 (Level 4: above 50% growth control rate)	4 (Level 4: above 50% growth control rate)	4 (Level 4: above 50% growth control rate)
CCn1nc(C2CC2)c(C(=O)c2ccc(C(F)(F)F)c(N3CCCCC3=O)c2Cl)c1OC(=O)c1cn(C)nc1C [Compound 115]	8 (Level 8: above 90% growth control rate)	4 (Level 4: above 50% growth control rate)	6 (Level 6: above 70% growth control rate)	10	10	3 (Level 3: above 20% growth control rate)	1 (Level 1: below 5% growth control rate)	9 (Level 9: above 95% growth control rate)	10	2 (Level 2: 5%-20% growth control rate)	10	6 (Level 6: above 70% growth control rate)	10	0	1 (Level 1: below 5% growth control rate)	3 (Level 3: above 20% growth control rate)	4 (Level 4: above 50% growth control rate)	4 (Level 4: above 50% growth control rate)
CCOc1c(C(=O)Oc2c(C(=O)c3ccc(C(F)(F)F)c(N4CCCC4=O)c3Cl)c(C3CC3)nn2C)cnn1C [Compound 026]	8 (Level 8: above 90% growth control rate)	8 (Level 8: above 90% growth control rate)	10	10	10	4 (Level 4: above 50% growth control rate)	4 (Level 4: above 50% growth control rate)	6 (Level 6: above 70% growth control rate)	10	10	10	5 (Level 5: above 60% growth control rate)		1 (Level 1: below 5% growth control rate)	3 (Level 3: above 20% growth control rate)	8 (Level 8: above 90% growth control rate)	8 (Level 8: above 90% growth control rate)	8 (Level 8: above 90% growth control rate)
CCS(=O)(=O)Oc1c(C(=O)c2ccc(C(F)(F)F)c(N3CCCC3=O)c2Cl)c(C)nn1C [Compound 019]	7 (Level 7: above 80% growth control rate)	1 (Level 1: below 5% growth control rate)	4 (Level 4: above 50% growth control rate)	6 (Level 6: above 70% growth control rate)	6 (Level 6: above 70% growth control rate)		0	9 (Level 9: above 95% growth control rate)	10	9 (Level 9: above 95% growth control rate)	10	9 (Level 9: above 95% growth control rate)	9 (Level 9: above 95% growth control rate)	0	0	2 (Level 2: 5%-20% growth control rate)	3 (Level 3: above 20% growth control rate)	4 (Level 4: above 50% growth control rate)
